Molecules are shown by their SMILES.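 Test compounds were applied to cells in 96-well plates for 48 hours at 5 doses. The concentration for 50% growth inhibition is given as GI50.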 Active and inactive are the calls of the source. No stated cut-off is given here; in the data, active = GI50 up to about 1.1 µM and inactive = higher.

The record followed here is ChEMBL document CHEMBL1201862, “PubChem BioAssay data set” (2004).

Some test systems named below: HCC 2998; HL-60; A549; SNB-75; SR; COLO 205; HT-29; Malme-3M; MOLT-4; NCI-H23; CCRF-CEM; HCT-15; TK-10; IGROV-1; UO-31; HCT-116.
What all share (assay): DTP human tumour cell line panel, 48 h

For orientation: GI50 means the concentration at which growth is held to half of that of the control. As to `Nc1cccc(C(=O)/C=C/c2ccccc2O)c1`, the GI50 in the test on HCC 2998 was > 100 µM (inactive); in the test with HL-60, 20.7 µM (inactive); in the test with A549, > 100 µM (inactive); in the test with SNB-75, 13.2 µM (inactive); with SR it was 44.7 µM (inactive); in the test with COLO 205, > 100 µM (inactive). Also, the GI50 was 68.2 µM (inactive) in the test with HT-29; > 100 µM (inactive) in the test with Malme-3M; > 100 µM (inactive) with MOLT-4; > 100 µM (inactive) in the test with NCI-H23; 27.5 µM (inactive) in the test on CCRF-CEM; greater than 100 µM in the test with HCT-15. The GI50 with TK-10, in the test on IGROV-1, in the test on UO-31 and with HCT-116 was > 100 µM (inactive) each time.
In the case of `C#CC1(O)CCC2C3CCc4cc(Oc5nc(F)nc(-c6c7ccccc7c7n6CCS7)n5)ccc4C3CC[C@@]21C` (stereo not given in full), the GI50 was 19.2 µM (inactive) with HCC 2998; 19.8 µM (inactive) in the test with HL-60; 33.6 µM (inactive) in the test on A549; 12.2 µM (inactive) with SNB-75; 5.79 µM (inactive) with SR; 29 µM (inactive) in the test with COLO 205. Besides, the GI50 in the test on HT-29 is 27.9 µM (inactive); with Malme-3M, 38.5 µM (inactive); with MOLT-4, 26.9 µM (inactive); in the test on NCI-H23, 18.7 µM (inactive); in the test with CCRF-CEM, 11 µM (inactive); in the test on HCT-15 it was 15.1 µM. Further, the GI50 with TK-10 is 27.2 µM (inactive); in the test with IGROV-1 it was 29.2 µM (inactive); in the test on UO-31, 28.6 µM (inactive); in the test with HCT-116, 12.1 µM (inactive).
In the case of `CC1CC(=O)Nc2ccccc2N1C(=O)CN1CCC(CCCCN(C)C)CC1` (stereo not given), the GI50 in the test on HCC 2998, with HL-60, in the test on A549, in the test with SNB-75, in the test with SR and in the test with COLO 205 was > 100 µM (inactive) in each case. Besides, the GI50 with HT-29 is > 100 µM (inactive); in the test with Malme-3M, > 100 µM (inactive); in the test on MOLT-4, > 100 µM (inactive); in the test with NCI-H23 it was > 100 µM (inactive); in the test with CCRF-CEM, > 100 µM (inactive); in the test with HCT-15, greater than 100 µM. In addition, the GI50 with TK-10, with IGROV-1, with UO-31 and with HCT-116 was > 100 µM (inactive) in each case.
Take `COC(=O)C1(C)NCCc2c1[nH]c1ccccc21` (stereo not given): the GI50 was > 100 µM (inactive) in the test with HCC 2998; > 10 µM (inactive) in the test with HL-60; > 100 µM (inactive) in the test with A549; 16.8 µM (inactive) in the test with SNB-75; > 100 µM (inactive) in the test with SR; > 100 µM (inactive) in the test with COLO 205. The GI50 in the test on HT-29 was > 100 µM (inactive); with Malme-3M, > 100 µM (inactive); in the test on MOLT-4, > 100 µM (inactive); with NCI-H23, > 100 µM (inactive); in the test with CCRF-CEM it was > 100 µM (inactive); in the test with HCT-15, greater than 100 µM. The GI50 with TK-10, in the test on IGROV-1, in the test on UO-31 and in the test with HCT-116 was > 100 µM (inactive) each time.
Turning to `C[n+]1c2ccccc2c(CNC(CS)C(=O)O)c2ccccc21` (stereo not given), the GI50 in the test with HCC 2998 was 31.5 µM (inactive); in the test with HL-60, 17.3 µM (inactive); with A549, 30.3 µM (inactive); in the test on SNB-75, 21.7 µM (inactive); in the test with SR, 12.7 µM (inactive); in the test on COLO 205, 19.2 µM (inactive). For the same molecule, the GI50 with HT-29 is 29.3 µM (inactive); in the test with Malme-3M it was 37.8 µM (inactive); in the test with MOLT-4, 12.4 µM (inactive); in the test with NCI-H23, 25.9 µM (inactive); with CCRF-CEM, 24.4 µM (inactive); in the test with HCT-15, 20.7 µM. Besides, the GI50 was 39.1 µM (inactive) in the test on TK-10, 18.8 µM (inactive) in the test with IGROV-1, 18 µM (inactive) in the test on UO-31 and 17.5 µM (inactive) in the test on HCT-116.
